One molecule from patent publication US20230126569A1, “COMPOSITION FOR […] OF SARS-CoV-2 TO ACE2 PROTEIN” (priority 2020, published 2023) can be followed below.

Assay [1] has as its target T1, binding between the spike protein of SARS-CoV-2 and the ACE2 protein (Severe acute respiratory syndrome coronavirus 2, UniProt P0DTC2).
The target in assay [2] is T1, binding between the spike protein of SARS-CoV-2 and the ACE2 protein. The source holds these as a separate data set.

Several values for one entry are separate records, joined by “and”; a condition that tells them apart may be missing. Identical values can stand only once.

With `[O][Cl+][O-]` [Chlorine Dioxide, chlorine dioxide], the “binding between the spike protein and the ACE2 protein” value in assay [1] was “significantly reduced”. In assay [2], the “Luminescence Intensity (counts/sec × 1000, average ± standard deviation, n = 3)” value was 1322 ± 45 counts/sec × 1000 and 1072 ± 47 counts/sec × 1000.
